Literature values as cited in US20120115745A1, “METHODS FOR PREDICTING SENSITIVITY TO TREATMENT WITH A TARGETED TYROSINE KINASE INHIBITOR” (priority 2010, published 2012).

Experiments:
[1] = target: unrelated receptor tyrosine kinases, soluble tyrosine kinases and serine/threonine kinases; conditions: less activity than against VEGF and PDGF receptor families
[2] = tested on: tumor cells that are dependent on mutant, constitutively active, FLT3 and KIT kinases

IC50 [1]: > 1000 nM
SMILES: Cc1ccc(F)c(NC(=O)Nc2ccc(-c3cccc4[nH]nc(N)c34)cc2)c1 [ABT-869, N-(4-(3-amino-1H-indazol-4-yl)phenyl)-N′-(2-fluoro-5-methylphenyl)urea]
anti-proliferative and apoptotic effects on tumor cells [2]: potent anti-proliferative and apoptotic effects
